A melting point compilation (Tetko et al.)

Compound	melting point [°C]
CN1CCN(c2ccc(C=O)cc2F)CC1	65 to 67
N#Cc1cccc(Cc2cnc(N)s2)c1	143 to 145
O=Cc1ccc(-c2cc(Cl)ccc2Cl)o1	84 to 86
O=C(CCl)c1ccc(N2CCCC2=O)cc1	127 to 129
N#CC1(N)CCSC1 (configuration not stated)	54 to 56
Cc1cccc2[nH]cc(CCN)c12	108 to 110
COc1ccc(NC(=O)C(C)Cl)cc1OC (configuration not stated)	109 to 111
O=C(O)c1cc(S)ccc1Br	146 to 148
O=C(O)c1ccc(Cl)c(S(=O)(=O)NCc2ccco2)c1	133 to 135
CC(NC(N)=O)C(=O)O (configuration not stated)	171 to 173
O=C(O)C1CCCN1C(=O)c1cncn1-c1ccccc1 (configuration not stated)	133 to 135
C#CCn1c2ccccc2c2ccccc21	103 to 105
Nc1ccc2oc(=O)ccc2c1	159 to 161
Nc1ccccc1NS(=O)(=O)c1ccccc1	169 to 171
CC(C)Cn1c(N)c(Br)c(=O)[nH]c1=O	249 to 251
N=c1ccc2sc(N)nc2[nH]1	193 to 195
ClCc1cc(Cl)cc2c1OC(c1ccccc1)OC2 (configuration not stated)	111 to 113
CN1CCc2nc(N)c(C#N)cc2C1	215 to 217
N#Cc1cccc(C2(N)CC2)c1	67 to 69
COc1ccc2c(c1)OCC(C(=O)O)C2 (configuration not stated)	152 to 154
COc1cccc(-c2csc(=O)[nH]2)c1	154 to 156
Cc1cc2c(N3CCCC3C(=O)O)ncnc2s1 (configuration not stated)	129 to 131
Cc1cc(NC(=O)c2ccccc2I)sc1C(=O)O	202 to 204
Cc1cc(C)n(-c2ccc(C(=O)O)cn2)n1	241 to 243

Compound	melting point [°C]
O=C(O)CCn1cnc2sccc2c1=O	165 to 167
Fc1cc(F)cc(-c2n[nH]c(S)n2)c1	279 to 281
COc1cc(C2(C(=O)O)CC2)ccc1C	127 to 129
CNc1cc(-c2ccc(OC)cc2)[nH]n1	122 to 124
NS(=O)(=O)N1CCN(Cc2ccccc2)CC1	147 to 149
Nc1nnc(-c2ccc(Cl)cc2Cl)[nH]1	228 to 230
COc1ccccc1-c1cc(N)[nH]n1	94 to 96
Cc1nc(Cl)c2cc(-c3ccccc3)sc2n1	114 to 116
Cc1cc(N2CCCS2(=O)=O)ccc1Br	131 to 133
CC(Sc1ncccc1C(=O)O)C(=O)N1CCCC1 (configuration not stated)	192 to 194
O=C1CC(C(=O)O)CCN1 (configuration not stated)	164 to 166
CC(=O)CC(=O)Nc1ccc(I)cc1	142 to 144
CC(C(=O)O)S(=O)(=O)c1ccc(F)cc1 (configuration not stated)	117 to 119
COC(=O)NC(C(=O)O)C(C)C (configuration not stated)	83 to 85
O=C(O)c1ccnc(SCC(F)(F)F)c1	104 to 106
COC(=O)Cn1cnc(C#N)n1	53 to 55
O=C(c1ccccc1)c1cc(Cl)ccc1Cl	91 to 93
Cc1ccc(SC2(C(=O)O)CCCC2)cc1	80 to 82
CCNS(=O)(=O)c1ccc(F)c(C(=O)O)c1	154 to 156
O=C(O)CCCc1ccc(Cl)cc1	58 to 60
O=c1cc(CO)occ1OCc1ccccc1	96 to 98
Cc1cc(C)nc(-n2cc(C(=O)O)c(C)n2)n1	287 to 289
O=C(O)c1ccc2c(c1)COCO2	189 to 191
NS(=O)(=O)C=Cc1ccc(F)cc1	148 to 150

Compound	melting point [°C]
O=C(O)Cc1csc(-c2ccc(Cl)cc2Cl)n1	159 to 161
COc1cc(C#N)c2ccccc2n1	133 to 135
CC(C)c1nnc(NC(=O)OCC(F)(F)F)s1	189 to 191
Cc1c(N)cccc1CS(C)=O (configuration not stated)	183 to 185
N#Cc1ccc(-c2nc3ccccc3[nH]2)cc1	326 to 328
NNc1ccccc1S(=O)(=O)N1CCOCC1	141 to 143
COC(=O)c1cc(N)ccc1C	38 to 40
Cn1cc(C(=O)CBr)cn1	116 to 118
O=C1NCCc2ccc(S(=O)(=O)Cl)cc21	188 to 190
CC(C(=O)O)N1C(=O)NC2(CCCC2)C1=O (configuration not stated)	223 to 225
COC(=O)c1nc2ccccc2[nH]1	189 to 191
O=Cc1ccc(OCCn2cc(C(=O)O)nn2)c(Cl)c1	189 to 191
O=C(O)CNS(=O)(=O)c1ccc(Cl)cc1	177 to 179
NC(=O)C1CC(O)CN1 (configuration not stated)	117 to 119
Nc1cccc(-n2cc[nH]c2=O)c1	155 to 157
COc1cc(Br)c2c(c1)NC(=O)C2=O	179 to 181
Cc1cc(C(=O)O)nn1-c1ccc(F)cc1	152 to 154
CC(=O)c1ccc(S(=O)(=O)N2CCOCC2)cc1	161 to 163
Nc1cc(C(F)(F)F)ccc1C(=O)O	175 to 176
O=C(O)c1cc(Br)cnc1S	239 to 241
CCn1ccnc(N)c1=O	119 to 121
CN(C)S(=O)(=O)c1c[nH]c(C(=O)O)c1	197 to 199
OC(c1ccc(F)cc1)C1CCNCC1 (configuration not stated)	146 to 148
Nc1nnc(-c2c(F)cccc2Cl)o1	152 to 154
